From patent US10906897B2, “Microbiocidal heterobicyclic derivatives” (priority 2015, dated 2021)

How the values were obtained:
Gaeumannomyces graminis = Gaeumannomyces graminis / liquid culture (Take-all of cereals); format: cell-based; conditions: growth inhibition photometrically 4-5 days after application, compared to untreated control
Fusarium culmorum = assay: microbe, parasite or virus in culture; format: cell-based; conditions: read-out: control of Fusarium culmorum
[1] = system: Botryotinia fuckeliana (Botrytis cinerea); assay: Botryotinia fuckeliana (Botrytis cinerea) / liquid culture (Gray mould); format: cell-based; conditions: growth inhibition photometrically 3-4 days after application, compared to untreated control
[2] = system: Glomerella lagenarium (Colletotrichum lagenarium); assay: Glomerella lagenarium (Colletotrichum lagenarium) / liquid culture (Anthracnose); format: cell-based; conditions: Colletotrichum orbiculare, growth inhibition photometrically 3-4 days after application, compared to untreated control
[3] = system: Magnaporthe grisea (Pyricularia oryzae); assay: whole plant or invertebrate; format: in vivo; conditions: foliar, read-out: control of Magnaporthe grisea
[4] = system: Monographella nivalis (Microdochium nivale); assay: Monographella nivalis (Microdochium nivale) / liquid culture (foot rot cereals); format: cell-based; conditions: 96 h, growth inhibition photometrically 4-5 days after application, compared to untreated control

| SMILES | inhibition of growth at 20 ppm (Gaeumannomyces graminis) | melting point | inhibition of growth at 20 ppm (Fusarium culmorum) | inhibition of growth at 20 ppm [1] | inhibition of growth at 20 ppm [2] | pest or weed control at 200 ppm [3] | inhibition of growth at 20 ppm [4] |
| --- | --- | --- | --- | --- | --- | --- | --- |
| CC1(C)N=C(c2cnc3ccccn23)c2cccc(F)c2C1(C)C [Compound E-1, 5-fluoro-1-imidazo[1,2-a]pyridin-3-yl-3,3,4,4-tetramethyl-isoquinoline] | ≥ 80% | 129 to 130 °C | ≥ 80% | ≥ 80% | ≥ 80% |  |  |
| CC1(C)N=C(c2cnc3c(F)cccn23)c2cccc(F)c2C1(C)C [Compound E-6, 5-fluoro-1-(8-fluoroimidazo[1,2-a]pyridin-3-yl)-3,3,4,4-tetramethyl-isoquinoline] | ≥ 80% | 156 to 157 °C | ≥ 80% | ≥ 80% | ≥ 80% | ≥ 50% | ≥ 80% |
| CC1(C)N=C(c2cnc3c(Br)cccn23)c2cccc(F)c2C1(C)C [Compound E-8, 1-(8-bromoimidazo[1,2-a]pyridin-3-yl)-5-fluoro-3,3,4,4-tetramethyl-isoquinoline] |  |  | ≥ 80% | ≥ 80% | ≥ 80% | ≥ 50% |  |
| Cc1cccn2c(C3=NC(C)(C)C(C)(C)c4c(F)cccc43)cnc12 [Compound E-9, 5-fluoro-3,3,4,4-tetramethyl-1-(8-methylimidazo[1,2-a]pyridin-3-yl)isoquinoline] | ≥ 80% | 160 to 161 °C | ≥ 80% | ≥ 80% | ≥ 80% | ≥ 50% | ≥ 80% |
| CC1(C)Cc2c(Cl)cccc2C(c2cnc3c(OC(F)F)cccn23)=N1 [Compound E-15, 5-chloro-1-[8-(difluoromethoxy)imidazo [1,2-a]pyridin-3-yl]-3,3-dimethyl-4H-isoquinoline] |  | 114 to 115 °C |  |  |  |  | ≥ 80% |
| CCc1cccn2c(C3=NC(C)(C)C(C)(C)c4c(F)cccc43)cnc12 [Compound E-21, 1-(8-ethylimidazo[1,2-a]pyridin-3-yl)-5-fluoro-3,3,4,4-tetramethyl-isoquinoline] |  |  | ≥ 80% | ≥ 80% | ≥ 80% |  | ≥ 80% |
| COc1cccn2c(C3=NC(C)(C)C(C)(C)c4c(F)cccc43)cnc12 [Compound E-24, 5-fluoro-1-(8-methoxyimidazo[1,2-a]pyridin-3-yl)-3,3,4,4-tetramethyl-isoquinoline] |  | 130 °C |  | ≥ 80% | ≥ 80% |  | ≥ 80% |
| COc1ccc2ncc(C3=NC(C)(C)C(C)(C)c4c(F)cccc43)n2c1 [Compound E-25, 5-fluoro-1-(6-methoxyimidazo[1,2-a]pyridin-3-yl)-3,3,4,4-tetramethyl-isoquinoline] | ≥ 80% | 214 to 215 °C |  |  |  |  |  |
| CC1(C)N=C(c2cnc3c(C(F)(F)F)cccn23)c2cccc(F)c2C1(C)C [Compound E-29, 5-fluoro-3,3,4,4-tetramethyl-1-[8-(trifluoromethyl)imidazo [1,2-a]pyridin-3-yl]isoquinoline] |  | 141 to 142 °C |  | ≥ 80% | ≥ 80% |  | ≥ 80% |
| Cc1ccn2c(C3=NC(C)(C)C(C)(C)c4c(F)cccc43)cnc2c1 [Compound E-31, 5-fluoro-3,3,4,4-tetramethyl-1-(7-methylimidazo[1,2-a]pyridin-3-yl)isoquinoline] |  |  | ≥ 80% | ≥ 80% | ≥ 80% | ≥ 50% |  |
| CC1(C)N=C(c2cnc3c(Cl)cccn23)c2cccc(F)c2C1(C)C [Compound E-32, 1-(8-chloroimidazo[1,2-a]pyridin-3-yl)-5-fluoro-3,3,4,4-tetramethyl-isoquinoline] |  | 167 to 168 °C | ≥ 80% | ≥ 80% | ≥ 80% |  |  |
| Cc1cccn2c(C3=NC(C)(C)C(C)(C)c4ccccc43)cnc12 [Compound E-33, 3,3,4,4-tetramethyl-1-(8-methylimidazo[1,2-a]pyridin-3-yl)isoquinoline] |  |  | ≥ 80% | ≥ 80% | ≥ 80% | ≥ 50% | ≥ 80% |
| CC1(C)N=C(c2cnc3c(Br)cccn23)c2cccc(F)c2C1(F)F [Compound E-37, 1-(8-bromoimidazo[1,2-a]pyridin-3-yl)-4,4,5-trifluoro-3,3-dimethyl-isoquinoline] | ≥ 80% |  |  |  | ≥ 80% |  |  |
